Experimental data as given in patent US20250000843A1, “LIGNAN-INSPIRED COMPOUNDS, METHODS OF MAKING, AND USING THEREOF” (IOWAIBO, INC., priority 2023, published 2025).

Assays:
[1] = tested on: PC3, a human prostate cancer cell line; assay: MTT toxicity assay in PC3 prostate cancer cells; assay type: cell-based
Protocol: Toxicity of the dibenzyl butyl lactone derivative (3-[(3,4-dimethoxyphenyl)cyclopentyl], 4-[(3-hydroxyphenol)methyl]oxolan-2-one) in breast cancer cells was evaluated using MTT assay. The MTT toxicity test is a colorimetric assay to measure cells' metabolic activity by serving as a substrate of cellular enzymes that reduce the tetrazolium orange dye, MTT (3-(4,5-Dimethylthiazol-2-yl)-2,5-diphenyltetrazolium bromide) to its insoluble, formazan, giving a purple color. The rate of conversion is directly proportional to cells' mitochondrial metabolic activity via NAD (P) H-dependent cellular oxidoreductase enzymes and serves as a surrogate marker of cell viability.
Cells previously expanded were seeded in 96 well plates at 1.9×10^5 and 9.6×10^4 cells/plate for 24- and 72-hours treatment respectively. This concentration is known to show the best window for the MTT assay, with better sensitivity and low variability.
5 mg of powdered enterolactone, dibenzyl butyl lactone derivative enantiomer A, and dibenzyl butyl lactone derivative enantiomer B were dissolved in 500 μl of DMSO at room temperature. Eight-point curves, ⅓ dilutions (highest concentration 125 μM), were prepared.
Twenty-four hours following the seeding process, the cells were washed once with phosphate buffered saline (PBS) and treated with the respective compounds in cell culture media. Each condition was tested in triplicates. For positive and negative controls, 8 mM methyl methane sulfonate (MMS) and DMSO 100% were used respectively.
Following compound addition, the plates were incubated for 24 and 72 hours. After the treatment period, cells were washed twice with PBS and media was replaced with MTT reagent at 0.5 mg/ml in Dulbecco's modified Eagle medium (DMEM) without phenol red. The plates were gently shaken and incubated for 4 hours. After the incubation the medium was removed and replaced by DMSO. The plates were gently shaken to solubilize the formazan crystals. Absorbance was measured using an Envision multiplate reader at a wavelength of 570 nm.
Toxicity of the dibenzyl butyl lactone derivative (3-[(3,4-dimethoxyphenyl)cyclopentyl], 4-[(3-hydroxyphenol)methyl]oxolan-2-one) in prostate cancer cells was evaluated using MTT assay. The same methods as those used in Example 2 were employed, except the cell line used was PC3, a human prostate cancer cell line, and cell cultures were established in Kaighn's modification of Ham's […] medium.
MTT assay results are shown in Tables 16-21 and expressed as the percentage of cell death after treatment.

[2] = tested on: human induced pluripotent stem (iPS) cells; assay type: cell-based; details: human
Protocol: The dibenzyl butyl lactone derivative enantiomer A and B were compared to enterolactone and tested to determine toxicity using a human pluripotent stem (hPS) cell-based assay that predicts the developmental toxicity potential. […] The current study was conducted using human induced pluripotent stem (iPS) cells.
The impact of test article exposure on ornithine and cystine metabolism in human induced pluripotent stem (iPS) cells was measured for three test articles (dibenzyl butyl lactone derivative enantiomer A, dibenzyl butyl lactone derivative enantiomer B, and enterolactone) and prediction of the potential for developmental toxicity was made through application of the hPS cell-based assay. Exposure spanned a range of eight treatment levels per test article ranging from 0.03-100 μM.
The observed decrease in the o/c ratio following exposure to each test article is indicative of the potential for developmental toxicity and/or embryo lethality in vivo at or above the dTP concentration. FIGS. 15A-C show the o/c ratio of dibenzyl butyl lactone derivative enantiomer A (FIG. 15A), dibenzyl butyl lactone derivative enantiomer B (FIG. 15B), and (+/−) enterolactone (FIG. 15C). The graphs in FIGS. 15A-C show the cell viability and o/c/ ratio over concentrations of 0.03-100 μM with the straight horizontal line illustrating the developmental toxicity threshold of 0.85.

SMILES: O=C1OCC(Cc2ccc3c(c2)OCO3)/C1=C\c1cccc(O)c1 (single isomer, unassigned) [Enantiomer B, 3-[(3,4-dimethoxyphenyl)cyclopentyl], 4-[(3-hydroxyphenol)methyl]oxolan-2-one]
- Cell death #1 (%) ([1]; PC3, 24 hours, 0.06 μM): −14.60%
- Cell death #2 (%) ([1]; PC3, 24 hours, 0.06 μM): −12.15%
- Cell death #3 (%) ([1]; PC3, 24 hours, 0.06 μM): −1.24%
- Cell death (%) MEAN ([1]; PC3, 24 hours, 0.06 μM): −9.33%
- Cell death #1 (%) ([1]; PC3, 24 hours, 0.17 μM): −22.81%
- Cell death #2 (%) ([1]; PC3, 24 hours, 0.17 μM): −20.24%
- Cell death #3 (%) ([1]; PC3, 24 hours, 0.17 μM): −14.35%
- Cell death (%) MEAN ([1]; PC3, 24 hours, 0.17 μM): −19.13%
- Cell death #1 (%) ([1]; PC3, 24 hours, 0.51 μM): −15.09%
- Cell death #2 (%) ([1]; PC3, 24 hours, 0.51 μM): −34.33%
- Cell death #3 (%) ([1]; PC3, 24 hours, 0.51 μM): −34.94%
- Cell death (%) MEAN ([1]; PC3, 24 hours, 0.51 μM): −28.12%
- Cell death #1 (%) ([1]; PC3, 24 hours, 1.54 μM): −58.35%
- Cell death #2 (%) ([1]; PC3, 24 hours, 1.54 μM): −51.85%
- Cell death #3 (%) ([1]; PC3, 24 hours, 1.54 μM): −43.77%
- Cell death (%) MEAN ([1]; PC3, 24 hours, 1.54 μM): −51.32%
- Cell death #1 (%) ([1]; PC3, 24 hours, 4.63 μM): −72.93%
- Cell death #2 (%) ([1]; PC3, 24 hours, 4.63 μM): −63.74%
- Cell death #3 (%) ([1]; PC3, 24 hours, 4.63 μM): −39.60%
- Cell death (%) MEAN ([1]; PC3, 24 hours, 4.63 μM): −58.76%
- Cell death #1 (%) ([1]; PC3, 24 hours, 13.89 μM): −71.22%
- Cell death #2 (%) ([1]; PC3, 24 hours, 13.89 μM): −63.50%
- Cell death #3 (%) ([1]; PC3, 24 hours, 13.89 μM): −63.74%
- Cell death (%) MEAN ([1]; PC3, 24 hours, 13.89 μM): −66.15%
- Cell death #1 (%) ([1]; PC3, 24 hours, 41.67 μM): −68.77%
- Cell death #2 (%) ([1]; PC3, 24 hours, 41.67 μM): −35.80%
- Cell death #3 (%) ([1]; PC3, 24 hours, 41.67 μM): −33.35%
- Cell death (%) MEAN ([1]; PC3, 24 hours, 41.67 μM): −45.97%
- Cell death #1 (%) ([1]; PC3, 24 hours, 125.00 μM): 6.23%
- Cell death #2 (%) ([1]; PC3, 24 hours, 125.00 μM): 3.54%
- Cell death #3 (%) ([1]; PC3, 24 hours, 125.00 μM): 4.64%
- Cell death (%) MEAN ([1]; PC3, 24 hours, 125.00 μM): 4.80%
- Cell death #1 (%) ([1]; PC3, 72 hours, 0.06 μM): −22.56%
- Cell death #2 (%) ([1]; PC3, 72 hours, 0.06 μM): −30.41%
- Cell death #3 (%) ([1]; PC3, 72 hours, 0.06 μM): −23.49%
- Cell death (%) MEAN ([1]; PC3, 72 hours, 0.06 μM): −25.49%
- Cell death #1 (%) ([1]; PC3, 72 hours, 0.17 μM): −33.20%
- Cell death #2 (%) ([1]; PC3, 72 hours, 0.17 μM): −39.41%
- Cell death #3 (%) ([1]; PC3, 72 hours, 0.17 μM): −29.79%
- Cell death (%) MEAN ([1]; PC3, 72 hours, 0.17 μM): −34.13%
- Cell death #1 (%) ([1]; PC3, 72 hours, 0.51 μM): −47.57%
- Cell death #2 (%) ([1]; PC3, 72 hours, 0.51 μM): −52.84%
- Cell death #3 (%) ([1]; PC3, 72 hours, 0.51 μM): −52.74%
- Cell death (%) MEAN ([1]; PC3, 72 hours, 0.51 μM): −51.05%
- Cell death #1 (%) ([1]; PC3, 72 hours, 1.54 μM): −52.64%
- Cell death #2 (%) ([1]; PC3, 72 hours, 1.54 μM): −40.34%
- Cell death #3 (%) ([1]; PC3, 72 hours, 1.54 μM): −51.19%
- Cell death (%) MEAN ([1]; PC3, 72 hours, 1.54 μM): −48.05%
- Cell death #1 (%) ([1]; PC3, 72 hours, 4.63 μM): −45.81%
- Cell death #2 (%) ([1]; PC3, 72 hours, 4.63 μM): −40.03%
- Cell death #3 (%) ([1]; PC3, 72 hours, 4.63 μM): −52.74%
- Cell death (%) MEAN ([1]; PC3, 72 hours, 4.63 μM): −46.19%
- Cell death #1 (%) ([1]; PC3, 72 hours, 13.89 μM): −33.31%
- Cell death #2 (%) ([1]; PC3, 72 hours, 13.89 μM): −22.56%
- Cell death #3 (%) ([1]; PC3, 72 hours, 13.89 μM): −34.75%
- Cell death (%) MEAN ([1]; PC3, 72 hours, 13.89 μM): −30.21%
- Cell death #1 (%) ([1]; PC3, 72 hours, 41.67 μM): 11.03%
- Cell death #2 (%) ([1]; PC3, 72 hours, 41.67 μM): 11.96%
- Cell death #3 (%) ([1]; PC3, 72 hours, 41.67 μM): 14.65%
- Cell death (%) MEAN ([1]; PC3, 72 hours, 41.67 μM): 12.55%
- Cell death #1 (%) ([1]; PC3, 72 hours, 125.00 μM): 64.88%
- Cell death #2 (%) ([1]; PC3, 72 hours, 125.00 μM): 61.78%
- Cell death #3 (%) ([1]; PC3, 72 hours, 125.00 μM): 57.24%
- Cell death (%) MEAN ([1]; PC3, 72 hours, 125.00 μM): 61.30%
- prostate cancer cell death as compared to enterolactone ([1]; PC3, at higher concentrations, 24 hours and 72 hours post-treatment): increased prostate cancer cell death as compared to enterolactone
- TP Concentration [2]: 49.8 µM
- TP concentration, fold lower than (+/−) enterolactone TP [2]: 4-6 fold
- dTP Concentration [2]: 15.1 µM
- dTP and TP concentrations compared with anti-cancer drugs tested in this assay [2]: higher than >90% of the anti-cancer drugs
- similarity of dTP concentrations between all three compounds [2]: ≤ 2 fold
